From patent publication US11945813B2, “5-substituted 4-amino-1H-benzo[c][1,2,6]thiadiazine 2,2-dioxides and formulations and uses thereof” (Firmenich Incorporated, priority 2018, dated 2024) come the findings set out here.

This assay concerns the target T1, T1R2/T1R3 taste receptor (Homo sapiens, UniProt Q8TE23).
T1 sequence (Q8TE23 20-839): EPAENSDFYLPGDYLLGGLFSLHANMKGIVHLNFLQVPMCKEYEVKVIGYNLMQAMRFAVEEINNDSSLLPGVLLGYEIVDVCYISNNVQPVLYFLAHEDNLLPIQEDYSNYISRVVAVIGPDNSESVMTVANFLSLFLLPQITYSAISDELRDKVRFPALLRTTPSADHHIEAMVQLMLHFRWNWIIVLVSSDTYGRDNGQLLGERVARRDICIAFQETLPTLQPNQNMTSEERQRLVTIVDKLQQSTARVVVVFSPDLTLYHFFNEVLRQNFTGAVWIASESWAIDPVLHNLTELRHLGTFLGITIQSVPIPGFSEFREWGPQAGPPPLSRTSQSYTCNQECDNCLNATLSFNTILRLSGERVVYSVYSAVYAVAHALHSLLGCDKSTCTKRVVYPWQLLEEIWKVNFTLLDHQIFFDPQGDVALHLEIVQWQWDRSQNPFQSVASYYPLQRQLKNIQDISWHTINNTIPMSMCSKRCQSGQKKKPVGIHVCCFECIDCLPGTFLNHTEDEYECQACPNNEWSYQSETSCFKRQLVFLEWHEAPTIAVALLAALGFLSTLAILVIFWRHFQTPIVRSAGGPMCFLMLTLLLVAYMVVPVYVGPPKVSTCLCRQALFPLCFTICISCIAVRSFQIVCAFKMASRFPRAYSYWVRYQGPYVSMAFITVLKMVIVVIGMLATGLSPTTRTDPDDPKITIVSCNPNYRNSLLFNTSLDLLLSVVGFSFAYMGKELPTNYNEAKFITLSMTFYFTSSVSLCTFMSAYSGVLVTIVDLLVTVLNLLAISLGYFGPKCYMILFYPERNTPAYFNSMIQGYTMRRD
T1 sequence (Q7RTX0 21-852 partner): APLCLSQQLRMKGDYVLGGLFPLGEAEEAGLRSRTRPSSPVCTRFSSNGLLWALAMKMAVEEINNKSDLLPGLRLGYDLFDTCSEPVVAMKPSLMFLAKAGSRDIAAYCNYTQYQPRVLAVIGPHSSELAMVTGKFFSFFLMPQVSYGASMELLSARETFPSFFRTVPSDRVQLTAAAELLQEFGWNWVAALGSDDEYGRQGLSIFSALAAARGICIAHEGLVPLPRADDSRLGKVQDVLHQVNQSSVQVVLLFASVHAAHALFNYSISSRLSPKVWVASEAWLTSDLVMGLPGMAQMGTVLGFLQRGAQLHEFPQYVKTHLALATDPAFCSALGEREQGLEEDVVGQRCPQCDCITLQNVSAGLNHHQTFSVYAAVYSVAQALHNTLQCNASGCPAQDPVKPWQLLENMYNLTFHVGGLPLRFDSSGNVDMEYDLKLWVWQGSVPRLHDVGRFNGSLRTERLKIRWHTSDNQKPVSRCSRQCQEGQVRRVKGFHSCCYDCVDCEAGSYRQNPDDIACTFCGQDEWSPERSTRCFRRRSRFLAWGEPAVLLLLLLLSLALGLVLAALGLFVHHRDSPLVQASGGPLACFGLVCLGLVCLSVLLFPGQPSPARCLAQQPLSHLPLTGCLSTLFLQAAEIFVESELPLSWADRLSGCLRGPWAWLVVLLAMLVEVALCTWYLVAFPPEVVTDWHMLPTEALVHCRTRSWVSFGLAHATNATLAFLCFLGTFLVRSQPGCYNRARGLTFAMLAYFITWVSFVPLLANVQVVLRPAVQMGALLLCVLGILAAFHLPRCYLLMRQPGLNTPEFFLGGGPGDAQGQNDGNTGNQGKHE
In words: Receptor-based assay: sweetener EC50 alone and with test compound (enhancement ratio). It counts as cell-based. Conditions: for Fructose Enhancement EC50 Ratio: sweetener fructose; for Sucralose Enhancement EC50 Ratio: sweetener sucralose; for Sucrose Enhancement EC50 Ratio: sweetener sucrose. The essentials: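 Sucrose, sucralose or fructose EC50 measured on human T1R2/T1R3, alone and with 3, 10 or 50 μM test compound. Enhancement is the EC50 ratio without/with compound, binned A >20, B 10-20, C >1 to <10.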

For the compound `NC1=NS(=O)(=O)Nc2cccc(OC[C@H]3CCCN(c4cccc(C(=O)NC5CCCC5)n4)C3)c21` [Compound 408], under “50 μM test compound”, the “Fructose Enhancement EC50 Ratio” value is “C (A “C” value indicates an enhancement ratio greater than 1 and less than 10)”. Further, the “Sucralose Enhancement EC50 Ratio” value is listed as “A (An “A” value indicates an enhancement ratio of greater than 20)” (10 μM test compound) and “A (An “A” value indicates an enhancement ratio of greater than 20)” (50 μM test compound). For the same compound, the “Sucrose Enhancement EC50 Ratio” value runs as follows: (3 μM test compound) “C (A “C” value indicates an enhancement ratio greater than 1 and less than 10)”; (10 μM test compound) “B (A “B” value indicates an enhancement ratio from 10 to 20)”; (50 μM test compound) “B (A “B” value indicates an enhancement ratio from 10 to 20)”.
On to `NC1=NS(=O)(=O)Nc2cccc(OC[C@H]3CCCN(c4cccc(C(=O)NC5CCCCC5)n4)C3)c21` [Compound 409], for which the “Sucralose Enhancement EC50 Ratio” value runs as follows: (10 μM test compound) “A (An “A” value indicates an enhancement ratio of greater than 20)”; (50 μM test compound) “A (An “A” value indicates an enhancement ratio of greater than 20)”. The “Sucrose Enhancement EC50 Ratio” value reads like this: (3 μM test compound) “C (A “C” value indicates an enhancement ratio greater than 1 and less than 10)”; (10 μM test compound) “C (A “C” value indicates an enhancement ratio greater than 1 and less than 10)”; (50 μM test compound) “B (A “B” value indicates an enhancement ratio from 10 to 20)”.
Take `CN(C)C(=O)c1cccc(N2CCC[C@H](COc3cccc4c3C(N)=NS(=O)(=O)N4)C2)n1` [Compound 410]: for the setting “50 μM test compound”, the “Fructose Enhancement EC50 Ratio” value is “C (A “C” value indicates an enhancement ratio greater than 1 and less than 10)”; the “Sucralose Enhancement EC50 Ratio” value is reported as “A (An “A” value indicates an enhancement ratio of greater than 20)”; the “Sucrose Enhancement EC50 Ratio” value is listed as “B (A “B” value indicates an enhancement ratio from 10 to 20)”. Under “10 μM test compound”, the “Sucralose Enhancement EC50 Ratio” value is “B (A “B” value indicates an enhancement ratio from 10 to 20)” and the “Sucrose Enhancement EC50 Ratio” value is listed as “B (A “B” value indicates an enhancement ratio from 10 to 20)”. Where the note is “3 μM test compound”, the “Sucrose Enhancement EC50 Ratio” value was “C (A “C” value indicates an enhancement ratio greater than 1 and less than 10)”.
On to `CCN(CC)C(=O)c1cccc(N2CCC[C@H](COc3cccc4c3C(N)=NS(=O)(=O)N4)C2)n1` [Compound 411], for which, under “10 μM test compound”, the “Sucralose Enhancement EC50 Ratio” value is on record as “B (A “B” value indicates an enhancement ratio from 10 to 20)”; the “Sucrose Enhancement EC50 Ratio” value is “C (A “C” value indicates an enhancement ratio greater than 1 and less than 10)”. In addition, the “Sucrose Enhancement EC50 Ratio” value (3 μM test compound) was “C (A “C” value indicates an enhancement ratio greater than 1 and less than 10)”.
In the case of `NC1=NS(=O)(=O)Nc2cccc(OC[C@H]3CCCN(c4cccc(C(=O)N5CCCC5)n4)C3)c21` [Compound 412], for the setting “10 μM test compound”, the “Fructose Enhancement EC50 Ratio” value was “C (A “C” value indicates an enhancement ratio greater than 1 and less than 10)”; the “Sucralose Enhancement EC50 Ratio” value was “A (An “A” value indicates an enhancement ratio of greater than 20)”; the “Sucrose Enhancement EC50 Ratio” value was “C (A “C” value indicates an enhancement ratio greater than 1 and less than 10)”. Where the note is “50 μM test compound”, the “Fructose Enhancement EC50 Ratio” value is “C (A “C” value indicates an enhancement ratio greater than 1 and less than 10)”; the “Sucralose Enhancement EC50 Ratio” value is listed as “A (An “A” value indicates an enhancement ratio of greater than 20)”; the “Sucrose Enhancement EC50 Ratio” value was “B (A “B” value indicates an enhancement ratio from 10 to 20)”. Further, the “Sucrose Enhancement EC50 Ratio” value (3 μM test compound) is “C (A “C” value indicates an enhancement ratio greater than 1 and less than 10)”.
`NC1=NS(=O)(=O)Nc2cccc(OC[C@H]3CCCN(c4cccc(C(=O)N5CCCCC5)n4)C3)c21` [Compound 413]: where the note is “50 μM test compound”, the “Fructose Enhancement EC50 Ratio” value is “C (A “C” value indicates an enhancement ratio greater than 1 and less than 10)”. Besides, the “Sucralose Enhancement EC50 Ratio” value is, setting by setting: (10 μM test compound) “B (A “B” value indicates an enhancement ratio from 10 to 20)”; (50 μM test compound) “A (An “A” value indicates an enhancement ratio of greater than 20)”. Also, the “Sucrose Enhancement EC50 Ratio” value is “C (A “C” value indicates an enhancement ratio greater than 1 and less than 10)” (3 μM test compound); “C (A “C” value indicates an enhancement ratio greater than 1 and less than 10)” (10 μM test compound); “C (A “C” value indicates an enhancement ratio greater than 1 and less than 10)” (50 μM test compound).
Take `NC1=NS(=O)(=O)Nc2cccc(OC[C@H]3CCCN(c4cccc(C(=O)N5CCOCC5)n4)C3)c21` [Compound 414]: the “Fructose Enhancement EC50 Ratio” value was “C (A “C” value indicates an enhancement ratio greater than 1 and less than 10)” (10 μM test compound); “C (A “C” value indicates an enhancement ratio greater than 1 and less than 10)” (50 μM test compound). Further, the “Sucralose Enhancement EC50 Ratio” value (10 μM test compound) is reported as “A (An “A” value indicates an enhancement ratio of greater than 20)”. Further, the “Sucrose Enhancement EC50 Ratio” value runs as follows: (3 μM test compound) “C (A “C” value indicates an enhancement ratio greater than 1 and less than 10)”; (10 μM test compound) “C (A “C” value indicates an enhancement ratio greater than 1 and less than 10)”; (50 μM test compound) “B (A “B” value indicates an enhancement ratio from 10 to 20)”.
Regarding `CN1CCN(C(=O)c2cccc(N3CCC[C@H](COc4cccc5c4C(N)=NS(=O)(=O)N5)C3)n2)CC1` [Compound 415], where the note is “10 μM test compound”, the “Fructose Enhancement EC50 Ratio” value is “C (A “C” value indicates an enhancement ratio greater than 1 and less than 10)”; the “Sucrose Enhancement EC50 Ratio” value is “C (A “C” value indicates an enhancement ratio greater than 1 and less than 10)”. Also, under “50 μM test compound”, the “Fructose Enhancement EC50 Ratio” value was “C (A “C” value indicates an enhancement ratio greater than 1 and less than 10)”; the “Sucralose Enhancement EC50 Ratio” value is reported as “A (An “A” value indicates an enhancement ratio of greater than 20)”; the “Sucrose Enhancement EC50 Ratio” value is “C (A “C” value indicates an enhancement ratio greater than 1 and less than 10)”. The “Sucrose Enhancement EC50 Ratio” value (3 μM test compound) was “C (A “C” value indicates an enhancement ratio greater than 1 and less than 10)”.
As to `CC(C)CNC(=O)c1cccc(N2CCC[C@H](COc3cccc4c3C(N)=NS(=O)(=O)N4)C2)n1` [Compound 416], where the note is “50 μM test compound”, the “Fructose Enhancement EC50 Ratio” value is “C (A “C” value indicates an enhancement ratio greater than 1 and less than 10)”; the “Sucralose Enhancement EC50 Ratio” value is on record as “A (An “A” value indicates an enhancement ratio of greater than 20)”; the “Sucrose Enhancement EC50 Ratio” value was “B (A “B” value indicates an enhancement ratio from 10 to 20)”. Moreover, where the note is “10 μM test compound”, the “Sucralose Enhancement EC50 Ratio” value was “A (An “A” value indicates an enhancement ratio of greater than 20)”; the “Sucrose Enhancement EC50 Ratio” value was “C (A “C” value indicates an enhancement ratio greater than 1 and less than 10)”. Under “3 μM test compound”, the “Sucrose Enhancement EC50 Ratio” value is “C (A “C” value indicates an enhancement ratio greater than 1 and less than 10)”.
As for `NC1=NS(=O)(=O)Nc2cccc(OC[C@H]3CCCN(c4cccc(C(=O)NCC5CC5)n4)C3)c21` [Compound 417], where the note is “50 μM test compound”, the “Fructose Enhancement EC50 Ratio” value was “C (A “C” value indicates an enhancement ratio greater than 1 and less than 10)”; the “Sucralose Enhancement EC50 Ratio” value is on record as “A (An “A” value indicates an enhancement ratio of greater than 20)”; the “Sucrose Enhancement EC50 Ratio” value was “C (A “C” value indicates an enhancement ratio greater than 1 and less than 10)”. Besides, where the note is “10 μM test compound”, the “Sucralose Enhancement EC50 Ratio” value is reported as “A (An “A” value indicates an enhancement ratio of greater than 20)”; the “Sucrose Enhancement EC50 Ratio” value is “C (A “C” value indicates an enhancement ratio greater than 1 and less than 10)”. The “Sucrose Enhancement EC50 Ratio” value (3 μM test compound) was “C (A “C” value indicates an enhancement ratio greater than 1 and less than 10)”.
